From PubChem BioAssay AID2060908 (Molecular Pharmacology Branch, DTP, NCI, 2025)

Test system: 186277-243-T-J2-PDC complex spheroids, viability
Test: Anticancer human tumor 186277-243-T-J2-PDC patient-derived colon adenocarcinoma cell line growth inhibition [RAS]
Conditions: for IC50: curve of first compound; for viability, T/C: stronger effect = lower value; active means viability on the fitted dose curve at most 10% of control; inactive means the rest
Method in brief: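 Agents were tested in combination matrices in half-log decrements from a top concentration at or near clinical Cmax (10 microM if undetermined). Targets were multi-cell spheroids of tumour lines plus HUVEC and MSC stromal cells.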

[1] = second compound 0.000949 µM, first compound 0.0316 µM
[2] = second compound 0.000949 µM, first compound 0.1 µM
[3] = second compound 0.000949 µM, first compound 0.316 µM
[4] = second compound 0.000949 µM, first compound 1 µM
[5] = second compound 0.000949 µM, first compound 3.16 µM
[6] = second compound 0.000949 µM, first compound 10 µM
[7] = second compound 0.003 µM, first compound 0.0316 µM
[8] = second compound 0.003 µM, first compound 0.1 µM
[9] = second compound 0.003 µM, first compound 0.316 µM
[10] = second compound 0.003 µM, first compound 1 µM
[11] = second compound 0.003 µM, first compound 3.16 µM
[12] = second compound 0.003 µM, first compound 10 µM
[13] = second compound 0.00949 µM, first compound 0.0316 µM
[14] = second compound 0.00949 µM, first compound 0.1 µM
[15] = second compound 0.00949 µM, first compound 0.316 µM
[16] = second compound 0.00949 µM, first compound 1 µM
[17] = second compound 0.00949 µM, first compound 3.16 µM
[18] = second compound 0.00949 µM, first compound 10 µM
[19] = second compound 0.03 µM, first compound 0.0316 µM
[20] = second compound 0.03 µM, first compound 0.1 µM
[21] = second compound 0.03 µM, first compound 0.316 µM
[22] = second compound 0.03 µM, first compound 1 µM
[23] = second compound 0.03 µM, first compound 3.16 µM
[24] = second compound 0.03 µM, first compound 10 µM
[25] = second compound 0.0949 µM, first compound 0.0316 µM
[26] = second compound 0.0949 µM, first compound 0.1 µM
[27] = second compound 0.0949 µM, first compound 0.316 µM
[28] = second compound 0.0949 µM, first compound 1 µM
[29] = second compound 0.0949 µM, first compound 3.16 µM
[30] = second compound 0.0949 µM, first compound 10 µM
[31] = second compound 0.3 µM, first compound 0.0316 µM
[32] = second compound 0.3 µM, first compound 0.1 µM
[33] = second compound 0.3 µM, first compound 0.316 µM
[34] = second compound 0.3 µM, first compound 1 µM
[35] = second compound 0.3 µM, first compound 3.16 µM
[36] = second compound 0.3 µM, first compound 10 µM
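Further: spheroids exposed to compounds for 7 days before viability read.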

CC1(O)CCCC1n1c(=O)c(C(F)F)cc2cnc(NC3CCN(S(C)(=O)=O)CC3)nc21 (stereo unspecified) + CCn1c(-c2cc(N3CCN(C)CC3)cnc2C(C)OC)c2c3cc(ccc31)-c1csc(n1)CC(NC(=O)C1CC1C)C(=O)N1CCCC(N1)C(=O)OCC(C)(C)C2
1080 nM: IC50 (second compound 0.003 µM)
3790 nM: IC50 (second compound 0.000949 µM)
active: viability, T/C [6] 1.35% | viability, T/C [12] 0.72% | viability, T/C [18] 0.4% | viability, T/C [22] 9.98% | viability, T/C [23] 7.39% | viability, T/C [24] 0.34% | viability, T/C [25] 9.76% | viability, T/C [26] 7.17% | viability, T/C [27] 6.71% | viability, T/C [28] 6.53% | viability, T/C [29] 5.94% | viability, T/C [30] 0.31% | viability, T/C [31] 6.48% | viability, T/C [32] 6.07% | viability, T/C [33] 5.61% | viability, T/C [34] 5.93% | viability, T/C [35] 5.05% | viability, T/C [36] 0.34%
inactive: viability, T/C [1] 124% | viability, T/C [2] 104% | viability, T/C [3] 108% | viability, T/C [4] 86.7% | viability, T/C [5] 61.8% | viability, T/C [7] 116% | viability, T/C [8] 107% | viability, T/C [9] 60.8% | viability, T/C [10] 55.4% | viability, T/C [11] 36.9% | viability, T/C [13] 47.4% | viability, T/C [14] 41% | viability, T/C [15] 23.6% | viability, T/C [16] 20.1% | viability, T/C [17] 14% | viability, T/C [19] 15.2% | viability, T/C [20] 11.5% | viability, T/C [21] 10.6%
< 31.6 nM: IC50 (second compound 0.00949 µM) | IC50 (second compound 0.03 µM) | IC50 (second compound 0.0949 µM) | IC50 (second compound 0.3 µM)

CCN1CCN(Cc2ccc(Nc3ncc(F)c(-c4cc(F)c5nc(C)n(C(C)C)c5c4)n3)nc2)CC1 + CCn1c(-c2cc(N3CCN(C)CC3)cnc2C(C)OC)c2c3cc(ccc31)-c1csc(n1)CC(NC(=O)C1CC1C)C(=O)N1CCCC(N1)C(=O)OCC(C)(C)C2
inactive: viability, T/C (second compound 0.000949 µM, first compound 0.00316 µM) 102% | viability, T/C (second compound 0.000949 µM, first compound 0.01 µM) 121% | viability, T/C [1] 140% | viability, T/C [2] 149% | viability, T/C [3] 121% | viability, T/C [4] 76.6% | viability, T/C (second compound 0.003 µM, first compound 0.00316 µM) 105% | viability, T/C (second compound 0.003 µM, first compound 0.01 µM) 111% | viability, T/C [7] 107% | viability, T/C [8] 86.1% | viability, T/C [9] 53% | viability, T/C [10] 32% | viability, T/C (second compound 0.00949 µM, first compound 0.00316 µM) 50.8% | viability, T/C (second compound 0.00949 µM, first compound 0.01 µM) 43.8% | viability, T/C [13] 32.7% | viability, T/C [14] 22.1% | viability, T/C [15] 16.8% | viability, T/C [16] 12.3% | viability, T/C (second compound 0.03 µM, first compound 0.00316 µM) 14.5% | viability, T/C (second compound 0.03 µM, first compound 0.01 µM) 13.7% | viability, T/C [19] 11.9% | viability, T/C [20] 9.88%
3.65 nM: IC50 (second compound 0.00949 µM)
> 1000 nM: IC50 (second compound 0.000949 µM)
< 3.16 nM: IC50 (second compound 0.03 µM) | IC50 (second compound 0.0949 µM) | IC50 (second compound 0.3 µM)
active: viability, T/C [21] 9.46% | viability, T/C [22] 8.2% | viability, T/C (second compound 0.0949 µM, first compound 0.00316 µM) 7.73% | viability, T/C (second compound 0.0949 µM, first compound 0.01 µM) 7.37% | viability, T/C [25] 6.72% | viability, T/C [26] 6.74% | viability, T/C [27] 7.64% | viability, T/C [28] 7% | viability, T/C (second compound 0.3 µM, first compound 0.00316 µM) 6.2% | viability, T/C (second compound 0.3 µM, first compound 0.01 µM) 5.86% | viability, T/C [31] 6.14% | viability, T/C [32] 6.13% | viability, T/C [33] 6.52% | viability, T/C [34] 6.25%
357 nM: IC50 (second compound 0.003 µM)

C[C@@H](NC(=O)c1ncnc(N)c1Cl)c1ncc(C(=O)Nc2cc(C(F)(F)F)c(Cl)cn2)s1 + CCn1c(-c2cc(N3CCN(C)CC3)cnc2C(C)OC)c2c3cc(ccc31)-c1csc(n1)CC(NC(=O)C1CC1C)C(=O)N1CCCC(N1)C(=O)OCC(C)(C)C2
3630 nM: IC50 (second compound 0.00949 µM)
active: viability, T/C [25] 9.22% | viability, T/C [26] 10.4% | viability, T/C [27] 10% | viability, T/C [28] 9.11% | viability, T/C [29] 8.59% | viability, T/C [30] 7.09% | viability, T/C [31] 7.68% | viability, T/C [32] 8.08% | viability, T/C [33] 7.77% | viability, T/C [34] 7.85% | viability, T/C [35] 7.78% | viability, T/C [36] 4.79%
> 10000 nM: IC50 (second compound 0.000949 µM) | IC50 (second compound 0.003 µM)
inactive: viability, T/C [1] 104% | viability, T/C [2] 87.5% | viability, T/C [3] 88% | viability, T/C [4] 88.7% | viability, T/C [5] 85.9% | viability, T/C [6] 73.6% | viability, T/C [7] 108% | viability, T/C [8] 114% | viability, T/C [9] 109% | viability, T/C [10] 82.6% | viability, T/C [11] 93.2% | viability, T/C [12] 54.4% | viability, T/C [13] 61.7% | viability, T/C [14] 83.8% | viability, T/C [15] 78.6% | viability, T/C [16] 71.4% | viability, T/C [17] 54.2% | viability, T/C [18] 19.8% | viability, T/C [19] 21.2% | viability, T/C [20] 23.7% | viability, T/C [21] 25.3% | viability, T/C [22] 20.9% | viability, T/C [23] 16.9% | viability, T/C [24] 10%
< 31.6 nM: IC50 (second compound 0.03 µM) | IC50 (second compound 0.0949 µM) | IC50 (second compound 0.3 µM)
